Tested on: HeLa cell line
Assay: Cell senescence-associated β-galactosidase (SA-β-gal) activity
Assay type: cell-based
Settings: treated alone
Experimental: A HeLa or Caski cell line, which was seeded in a 6-well plate in 2×10^5 cells or 1.5×10^5 cells and then cultured for a day by the method as described above, was transduced with siRNA. Then, each transduced cell line was treated with cisplatin (CDDP) in a final concentration of 2.5 uM, and cultured.
By using the cell senescence assay kit (BioVision, USA), cells were washed with PBS and treated with SA-β-gal staining solution for 12 hours at 37. Cells stained in blue were observed by using a general optical microscope with the magnification of 100 to 200 times.
SA β-Gal activity of a HeLA or Caski cell line, which was treated by the method as described above, was measured.

## N.N.[Cl][Pt][Cl] [cisplatin]
  SA β-Gal activity (staining): cells were stained in blue

— US9719093B2, “Composition for treating cancer associated with HPV infection” (priority 2012, dated 2017)
